These results are taken from patent US10023557B2 (LifeSci Pharmaceuticals, Inc., priority 2015, dated 2018).

Sequence of human plasma kallikrein (P03952 391-638): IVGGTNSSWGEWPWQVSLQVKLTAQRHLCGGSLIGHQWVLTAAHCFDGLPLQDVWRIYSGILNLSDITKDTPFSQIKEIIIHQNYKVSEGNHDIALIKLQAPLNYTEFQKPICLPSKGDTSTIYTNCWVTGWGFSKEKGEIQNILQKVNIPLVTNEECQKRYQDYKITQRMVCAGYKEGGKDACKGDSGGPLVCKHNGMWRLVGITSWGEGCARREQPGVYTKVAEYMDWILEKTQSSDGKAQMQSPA
Sequence of human plasma kallikrein (P03952 20-390 partner): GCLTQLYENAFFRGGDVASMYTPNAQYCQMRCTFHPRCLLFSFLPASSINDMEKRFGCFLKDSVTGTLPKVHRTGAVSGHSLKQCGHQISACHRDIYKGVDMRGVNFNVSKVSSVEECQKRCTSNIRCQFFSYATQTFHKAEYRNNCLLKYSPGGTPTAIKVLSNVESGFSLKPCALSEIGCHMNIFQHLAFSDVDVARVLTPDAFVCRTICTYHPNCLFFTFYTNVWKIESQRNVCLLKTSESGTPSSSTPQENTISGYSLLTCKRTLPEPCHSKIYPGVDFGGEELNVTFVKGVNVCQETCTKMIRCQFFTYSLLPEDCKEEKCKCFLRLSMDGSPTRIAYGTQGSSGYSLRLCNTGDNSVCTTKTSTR

The target in the assay is human plasma kallikrein (Homo sapiens (Human), UniProt P03952). Description: In vitro enzyme inhibition of human plasma kallikrein (PFR-AMC cleavage). The format is biochemical. The conditions noted are these: Pro-Phe-Arg-AMC substrate, 37° C., read-out: hPK IC50. Here is the method:
The ability of the compounds disclosed herein to inhibit human plasma kallikrein activity was quantified according to the procedures below.
A 10 mM solution of the test compound was made in DMSO. […] A control tube containing only DMSO is included. 16 μL of each compound test solution was combined with 384 μL of assay buffer (50 mM Tris-HCl pH 7.5, 150 mM NaCl, 0.01% Triton X-100) to yield a “4× test compound buffer stock”.
These solutions are hereby referred to as 4× hPK and 2×PFR-AMC, respectively.
50 μL was removed from this mixture and placed into duplicate wells on a Microfluor 1Black U-bottom microtiter plate (Thermo Scientific). This plate was incubated for 5 minutes at 37° C. To each well, 50 μL of pre-warmed 2×PFR-AMC was added to start the enzymatic reaction. Cleavage of PFR-AMC was monitored in a Biotek Synergy H4 reader set at 37° C. Readings are taken every 43 seconds for 1 hour. […] The IC50 is calculated using the Gen5 (Biotek Instruments).
The ability of the compounds in Table 3 to inhibit human plasma kallikrein activity was determined.
A word on the IC50: it is the concentration that gives 50% inhibition. In the case of `Cc1cc(N)nc(C)c1CNC(=O)c1ccnc(Cc2cc3cc(Cl)ccc3[nH]2)c1` [Example 147, N-((6-amino-2,4-dimethylpyridin-3-yl)methyl)-2-((5-chloro-1H-indol-2-yl)methyl)isonicotinamide], the IC50 was < 100 nM. The figure for `Cc1n[nH]c2ccc(CNC(=O)c3ccnc(Cc4ccc5ncc(Cl)cc5c4)c3)cc12` [Example 261, 2-((3-chloroquinolin-6-yl)methyl)-N-((3-methyl-1H-indazol-5-yl)methyl)isonicotinamide] is 1000 to 10000 nM; for `Cc1cc2[nH]cc(Cl)c2cc1CNC(=O)c1ccnc(Cc2ccc3ncc(Cl)cc3c2)c1` [Example 190, N-((3-chloro-6-methyl-1H-indol-5-yl)methyl)-2-((3-chloroquinolin-6-yl)methyl)isonicotinamide] it is 100 to 1000 nM; for `O=C(NCc1cc2cc[nH]c2cc1F)c1ccnc(Cc2ccc3ncc(Cl)cc3c2)c1` [Example 259, 2-((3-chloroquinolin-6-yl)methyl)-N-((6-fluoro-1H-indol-5-yl)methyl)isonicotinamide] it is 100 to 1000 nM. The same measure for `O=C(NCc1cnc2[nH]cc(Cl)c2c1)c1ccnc(Cc2ccc3ncc(N4CCCC4)cc3c2)c1` [Example 310, N-((3-chloro-1H-pyrrolo[2,3-b]pyridin-5-yl)methyl)-2-((3-(pyrrolidin-1-yl)quinolin-6-yl)methyl)isonicotinamide]: 100 to 1000 nM; for `O=C(NCc1cnc2[nH]nc(C(F)(F)F)c2c1)c1ccnc(Cc2ccc3ncc(Cl)cc3c2)c1` [Example 271, 2-((3-chloroquinolin-6-yl)methyl)-N-((3-(trifluoromethyl)-1H-pyrazolo[3,4-b]pyridin-5-yl)methyl)isonicotinamide]: 100 to 1000 nM.

On to `Cc1cc(N)nc(C)c1CNC(=O)c1ccnc(Cn2ncc3cc(Cl)cnc32)c1` [Example 202, N-((6-amino-2,4-dimethylpyridin-3-yl)methyl)-2-((5-chloro-1H-pyrazolo[3,4-b]pyridin-1-yl)methyl)isonicotinamide], for which the IC50 lay within 100 to 1000 nM.

For `Cc1cc(C(C)N)nc(C)c1CNC(=O)c1ccnc(Cc2ccc3ncc(Cl)cc3c2)c1` (centres unmarked) [Example 173, N-((6-(1-aminoethyl)-2,4-dimethylpyridin-3-yl)methyl)-2-((3-chloroquinolin-6-yl)methyl)isonicotinamide], the IC50 was 1000 to 10000 nM.

As for `NCc1ccc(CNC(=O)c2ccnc(Cc3ccc4ncc(Cl)cc4c3)c2)cn1` [Example 169, N-((6-(aminomethyl)pyridin-3-yl)methyl)-2-((3-chloroquinolin-6-yl)methyl)isonicotinamide], the IC50 was > 10000 nM. The same measure for `Cc1cc(N)nc(C)c1CNC(=O)c1cc(C#N)nc(Cc2ccc3ncc(Cl)cc3c2)c1` [Example 207, N-((6-amino-2,4-dimethylpyridin-3-yl)methyl)-2-((3-chloroquinolin-6-yl)methyl)-6-cyanoisonicotinamide]: < 100 nM; for `O=C(NCc1n[nH]c2ccc(Cl)cc12)c1ccnc(Cc2ccc3ncc(C(F)(F)F)cc3c2)c1` [Example 233, N-((5-chloro-1H-indazol-3-yl)methyl)-2-((3-(trifluoromethyl)quinolin-6-yl)methyl)isonicotinamide]: < 100 nM. The same measure for `Nc1cnc2ccc(Cc3cc(C(=O)NCc4cnc5[nH]cc(Cl)c5c4)ccn3)cc2c1` [Example 300, 2-((3-aminoquinolin-6-yl)methyl)-N-((3-chloro-1H-pyrrolo[2,3-b]pyridin-5-yl)methyl)isonicotinamide]: 1000 to 10000 nM; for `Cc1cc(N)nc(C)c1CNC(=O)c1ccnc(Cc2ccc3ncc(C(N)=O)cc3c2)c1` [Example 250, 6-((4-(((6-amino-2,4-dimethylpyridin-3-yl)methyl)carbamoyl)pyridin-2-yl)methyl)quinoline-3-carboxamide]: 100 to 1000 nM; for `NCc1ccc(CNC(=O)c2ccnc(Cc3ccc4ncc(Cl)cc4c3)c2)nc1` [Example 170, N-((5-(aminomethyl)pyridin-2-yl)methyl)-2-((3-chloroquinolin-6-yl)methyl)isonicotinamide]: > 10000 nM. The same measure for `Cc1nc(N)ccc1CNC(=O)c1ccnc(Cc2ccc3ncc(CO)cc3c2)c1` [Example 258, N-((6-amino-2-methylpyridin-3-yl)methyl)-2-((3-(hydroxymethyl)quinolin-6-yl)methyl)isonicotinamide]: 100 to 1000 nM; for `COCCNc1ccc(CNC(=O)c2ccnc(Cc3ccc4ncc(Cl)cc4c3)c2)c(C)n1` [Example 242, 2-((3-chloroquinolin-6-yl)methyl)-N-((6-((2-methoxyethyl)amino)-2-methylpyridin-3-yl)methyl)isonicotinamide]: 100 to 1000 nM; for `O=C(NCc1cc2c(Cl)c[nH]c2cc1F)c1ccnc(Cc2ccc3ncc(N4CCCC4)cc3c2)c1` [Example 307, N-((3-chloro-6-fluoro-1H-indol-5-yl)methyl)-2-((3-(pyrrolidin-1-yl)quinolin-6-yl)methyl)isonicotinamide]: 100 to 1000 nM. With `Nc1cnc2ccc(Cc3cc(C(=O)NCc4n[nH]c5ccc(Cl)cc45)ccn3)cc2c1` [Example 299, 2-((3-aminoquinolin-6-yl)methyl)-N-((5-chloro-1H-indazol-3-yl)methyl)isonicotinamide], the IC50 lay in the range of 1000 to 10000 nM. The figure for `COc1cnc2ccc(Cc3cc(C(=O)NCc4ccc(N)nc4C)ccn3)cc2c1` [Example 265, N-(6-amino-2-methyl-pyridin-3-ylmethyl)-2-(3-methoxy-quinolin-6-ylmethyl)-isonicotinamide] is < 100 nM; for `NCc1ccc(CNC(=O)c2ccnc(Cc3ccc4ncc(Cl)cc4c3)c2)cc1` [Example 168, N-(4-(aminomethyl)benzyl)-2-((3-chloroquinolin-6-yl)methyl)isonicotinamide] it is 100 to 1000 nM; for `Cc1nc2c(c(C)c1CNC(=O)c1ccnc(Cc3ccc4ncc(Cl)cc4c3)c1)CCCN2` [Example 195, 2-((3-chloroquinolin-6-yl)methyl)-N-((2,4-dimethyl-5,6,7,8-tetrahydro-1,8-naphthyridin-3-yl)methyl)isonicotinamide] it is < 100 nM. The same measure for `Cc1nc2c(cc1CNC(=O)c1ccnc(Cc3ccc4ncc(Cl)cc4c3)c1)CCN2` [Example 161, 2-((3-chloroquinolin-6-yl)methyl)-N-((6-methyl-2,3-dihydro-1H-pyrrolo[2,3-b]pyridin-5-yl)methyl)isonicotinamide]: 100 to 1000 nM; for `Nc1cnc2ccc(Cc3cc(C(=O)NCc4ccc5[nH]cc(Cl)c5c4F)ccn3)cc2c1` [Example 301, 2-((3-aminoquinolin-6-yl)methyl)-N-((3-chloro-4-fluoro-1H-indol-5-yl)methyl)isonicotinamide]: 100 to 1000 nM.

As for `Cc1cc(N)nc(C)c1CNC(=O)c1ccnc(Cc2cnc3[nH]c(Cl)cc3c2)c1` [Example 150, N-((6-amino-2,4-dimethylpyridin-3-yl)methyl)-2-((2-chloro-1H-pyrrolo[2,3-b]pyridin-5-yl)methyl)isonicotinamide], the IC50 fell in the range of 100 to 1000 nM.

On to `O=C(NCc1cc2c(Cl)c[nH]c2cc1F)c1ccnc(Cc2ccc3ncc(N4CCOCC4)cc3c2)c1` [Example 292, N-((3-chloro-6-fluoro-1H-indol-5-yl)methyl)-2-((3-morpholinoquinolin-6-yl)methyl)isonicotinamide], for which the IC50 was in the range of 1000 to 10000 nM. As for `Cc1cc(C)c(CNC(=O)c2ccnc(Cc3ccc4ncc(Cl)cc4c3)c2)c(C)n1` [Example 194, 2-((3-chloroquinolin-6-yl)methyl)-N-((2,4,6-trimethylpyridin-3-yl)methyl)isonicotinamide], the IC50 lay within 1000 to 10000 nM. Turning to `Cc1nc2c(cc1CNC(=O)c1ccnc(Cc3ccc4ncc(C(F)(F)F)cc4c3)c1)CNC2` [Example 164, N-((2-methyl-6,7-dihydro-5H-pyrrolo[3,4-b]pyridin-3-yl)methyl)-2-((3-(trifluoromethyl)quinolin-6-yl)methyl)isonicotinamide], the IC50 was > 10000 nM. The figure for `CCc1cnc2ccc(Cc3cc(C(=O)NCc4n[nH]c5ccc(Cl)cc45)ccn3)cc2c1` [Example 284, N-((5-chloro-1H-indazol-3-yl)methyl)-2-((3-ethylquinolin-6-yl)methyl)isonicotinamide] is < 100 nM; for `O=C(NCc1c[nH]c2ncc(Cl)cc12)c1ccnc(Cc2ccc3ncc(Cl)cc3c2)c1` [Example 269, N-((5-chloro-1H-pyrrolo[2,3-b]pyridin-3-yl)methyl)-2-((3-chloroquinolin-6-yl)methyl)isonicotinamide] it is 1000 to 10000 nM; for `CCc1cnc2ccc(Cc3cc(C(=O)NCc4cc5c(Cl)c[nH]c5cc4F)ccn3)cc2c1` [Example 280, N-((3-chloro-6-fluoro-1H-indol-5-yl)methyl)-2-((3-ethylquinolin-6-yl)methyl)isonicotinamide] it is < 100 nM. As to `O=C(NCc1cc2c(Cl)c[nH]c2cc1F)c1ccnc(Cc2ccc3ncc(N4CCC4)cc3c2)c1` [Example 320, 2-((3-(azetidin-1-yl)quinolin-6-yl)methyl)-N-((3-chloro-6-fluoro-1H-indol-5-yl)methyl)isonicotinamide], the IC50 is < 100 nM. The figure for `Cc1cnc2c(C(C)(C)O)cc(Cc3cc(C(=O)NCc4c(C)cc(N)nc4C)ccn3)cc2c1` [Example 318, N-((6-amino-2,4-dimethylpyridin-3-yl)methyl)-2-((8-(2-hydroxypropan-2-yl)-3-methylquinolin-6-yl)methyl)isonicotinamide] is < 100 nM.
